Measurements taken from patent EP3632916B1, “MORPHINAN COMPOUNDS” (Concert Pharmaceuticals Inc., priority 2007, dated 2008).

Target: Human CYP2D6 + P450 Reductase SUPERSOMES (Homo sapiens, UniProt P10635)
Conditions: 0.1 µM, 2D6 Supersomes
Description: Plates were then spun in the centrifuge for 10 minutes at 3000 rpm.

Sequence of Human CYP2D6 + P450 Reductase SUPERSOMES (P10635 whole entry): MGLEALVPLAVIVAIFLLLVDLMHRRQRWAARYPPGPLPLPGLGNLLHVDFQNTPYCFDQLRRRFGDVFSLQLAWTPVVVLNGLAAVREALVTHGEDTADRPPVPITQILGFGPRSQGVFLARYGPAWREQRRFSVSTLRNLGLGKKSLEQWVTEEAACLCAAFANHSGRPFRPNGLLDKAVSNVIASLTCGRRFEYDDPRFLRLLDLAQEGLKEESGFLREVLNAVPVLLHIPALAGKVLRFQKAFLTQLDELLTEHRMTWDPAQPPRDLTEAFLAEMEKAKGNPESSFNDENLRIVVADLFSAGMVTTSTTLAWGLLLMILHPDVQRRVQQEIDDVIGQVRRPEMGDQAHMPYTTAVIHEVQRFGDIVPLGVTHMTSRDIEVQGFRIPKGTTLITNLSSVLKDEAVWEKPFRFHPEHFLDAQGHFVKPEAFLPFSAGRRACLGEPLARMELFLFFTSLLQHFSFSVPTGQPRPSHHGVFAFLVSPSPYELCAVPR

Structure (SMILES): COc1ccc2c(c1)[C@]13CCCC[C@@H]1[C@H](C2)N(C)CC3 [dextromethorphan, (+)-3-methoxy-17-methyl-(9α,13α,14α)-morphinan]
- intact compound at the 20 minute time point: no intact dextromethorphan could be detected
